US6355799B1, “Substituted benzene compounds, process for their preparation, and herbicidal and defoliant compositions containing them” (ISK Americas Incorporated, priority 1997, dated 2002)

Columns and labels:
Format in all cases: in vivo
[1] = system: upland rice (Oryza sp., var. Tebonnet, RICE); assay: Pre-emerge test, crop safety; conditions: pre-emerge, 14 days after application, scale 0-100
Outline: (§1)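 Visual ratings on a 0-100 scale (0 no damage, 100 all plants dead) were taken at 14 days after treatment. Rates of 15-1000 g ai/ha in acetone, 187 l/ha, were sprayed onto soil one day after planting (pre-emerge) or onto 2-3 leaf plants with 0.25% v/v surfactant (post-emerge).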

[2] = system: field corn (Zea mays L., var. Dekalb 535, CORN); assay: Pre-emerge test, crop safety; conditions: pre-emerge, 14 days after application, scale 0-100
Outline: as §1

[3] = system: redroot pigweed (Amaranthus retroflexus, AMARE); assay: Pre-emerge test, greenhouse herbicide activity screening; conditions: pre-emerge, 14 days after application, scale 0-100
Outline: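 Compounds in acetone were track-sprayed at 187 l/ha, 15–1000 g ai/ha, onto sandy loam pots. Pre-emerge seeds were sown one day before spraying, with surface watering afterwards. Post-emerge plants were at the 2–3 leaf stage and sprayed with 0.25% v/v non-ionic surfactant. Injury was rated 0–100 at 14 days.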

[4] = system: large crabgrass (Digitaria sanguinalis, DIGSA); assay: Post-emerge test, greenhouse herbicide activity screening; conditions: post-emerge, 14 days after application, rating scale 0-100
Outline: as §1

[5] = system: lambsquarters (Chenopodium album, CHEAL); assay: as above; conditions: post-emerge, 14 days after application, rating scale 0-100
Outline: as §1

[6] = system: sicklepod (Cassia obtusifolia, CASOB); assay: as above; conditions: post-emerge, 14 days after application, rating scale 0-100
Outline: as §1

[7] = system: barnyardgrass (Echinochloa crus-galli, ECHCG); assay: as above; conditions: post-emerge, 14 days after application, rating scale 0-100
Outline: as §1

[8] = system: velvetleaf (Abutilon theophrasti, ABUTH); assay: as above; conditions: post-emerge, 14 days after application, rating scale 0-100
Outline: as §1

[9] = system: redroot pigweed (Amaranthus retroflexus, AMARE); assay: as above; conditions: post-emerge, 14 days after application, rating scale 0-100
Outline: as §1

[10] = system: johnsongrass (Sorghum halepense, SORHA); assay: as above; conditions: post-emerge, 14 days after application, rating scale 0-100
Outline: as §1

[11] = system: ivyleaf morningglory (Ipomoea hederacea, IPOHE); assay: as above; conditions: post-emerge, 14 days after application, rating scale 0-100
Outline: as §1

[12] = system: green foxtail (Setaria viridis, SETVI); assay: as above; conditions: post-emerge, 14 days after application, rating scale 0-100
Outline: as §1

[13] = system: large crabgrass (Digitaria sanguinalis, DIGSA); assay: Pre-emerge test, greenhouse herbicide activity screening; conditions: pre-emerge, 14 days after application, scale 0-100
Outline: (§2)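 Sandy loam pots; pre-emerge: sown 1 d pre-spray, surface-watered after, then bottom-watered. Post-emerge: sown 8–21 d before, 2–3 leaf stage, + 0.25% v/v NIS, bottom-watered. Acetone, 187 l/ha track spray, 15–1000 g ai/ha. 0–100 injury score, day 14.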

[14] = system: lambsquarters (Chenopodium album, CHEAL); assay: as above; conditions: pre-emerge, 14 days after application, scale 0-100
Outline: as §2

[15] = system: sicklepod (Cassia obtusifolia, CASOB); assay: as above; conditions: pre-emerge, 14 days after application, scale 0-100
Outline: as §2

[16] = system: barnyardgrass (Echinochloa crus-galli, ECHCG); assay: as above; conditions: pre-emerge, 14 days after application, scale 0-100
Outline: as §2

[17] = system: velvetleaf (Abutilon theophrasti, ABUTH); assay: as above; conditions: pre-emerge, 14 days after application, scale 0-100
Outline: as §2

[18] = system: johnsongrass (Sorghum halepense, SORHA); assay: as above; conditions: pre-emerge, 14 days after application, scale 0-100
Outline: as §2

[19] = system: ivyleaf morningglory (Ipomoea hederacea, IPOHE); assay: as above; conditions: pre-emerge, 14 days after application, scale 0-100
Outline: as §2

[20] = system: green foxtail (Setaria viridis, SETVI); assay: as above; conditions: pre-emerge, 14 days after application, scale 0-100
Outline: as §2

[21] = system: upland rice (Oryza sp., var. Tebonnet, RICE); assay: Post-emerge test, crop safety; conditions: post-emerge, 14 days after application, rating scale 0-100
Outline: as §2

[22] = system: field corn (Zea mays L., var. Dekalb 535, CORN); assay: Post-emerge test, crop safety; conditions: post-emerge, 14 days after application, rating scale 0-100
Outline: as §2

CCOC(=O)CSCC(=O)Nc1c(OC)c(Cl)cc(F)c1-n1c(=O)cc(C(F)(F)F)n(C)c1=O [2-170]
30: DIGSA phytotoxicity rating ([4]; 250 g ai/ha) | AMARE phytotoxicity rating ([9]; 250 g ai/ha) | phytotoxicity rating DIGSA ([13]; 63 g ai/ha) | phytotoxicity rating CASOB ([15]; 63 g ai/ha)
70: phytotoxicity rating AMARE ([3]; 63 g ai/ha) | phytotoxicity rating IPOHE ([19]; 250 g ai/ha)
20: ECHCG phytotoxicity rating ([7]; 250 g ai/ha) | AMARE phytotoxicity rating ([9]; 63 g ai/ha) | SETVI phytotoxicity rating ([12]; 250 g ai/ha) | phytotoxicity rating SORHA ([18]; 63 g ai/ha)
0: phytotoxicity rating RICE (crop damage) ([1]; 250 g ai/ha) | DIGSA phytotoxicity rating ([4]; 63 g ai/ha) | ECHCG phytotoxicity rating ([7]; 63 g ai/ha) | SORHA phytotoxicity rating ([10]; 63 g ai/ha) | phytotoxicity rating ECHCG ([16]; 63 g ai/ha)
50: CHEAL phytotoxicity rating ([5]; 250 g ai/ha) | IPOHE phytotoxicity rating ([11]; 63 g ai/ha) | phytotoxicity rating ECHCG ([16]; 250 g ai/ha)
15: phytotoxicity rating CORN (crop damage) ([2]; 250 g ai/ha) | CORN phytotoxicity rating (crop damage) ([22]; 250 g ai/ha)
10: phytotoxicity rating RICE (crop damage) ([1]; 63 g ai/ha) | phytotoxicity rating CORN (crop damage) ([2]; 63 g ai/ha) | CASOB phytotoxicity rating ([6]; 63 g ai/ha) | SORHA phytotoxicity rating ([10]; 250 g ai/ha) | SETVI phytotoxicity rating ([12]; 63 g ai/ha) | RICE phytotoxicity rating (crop damage) ([21]; 250 g ai/ha)
100: phytotoxicity rating AMARE ([3]; 250 g ai/ha) | phytotoxicity rating CHEAL ([14]; 63 g ai/ha) | phytotoxicity rating CHEAL ([14]; 250 g ai/ha) | phytotoxicity rating ABUTH ([17]; 250 g ai/ha)
40: phytotoxicity rating IPOHE ([19]; 63 g ai/ha)
5: RICE phytotoxicity rating (crop damage) ([21]; 63 g ai/ha) | CORN phytotoxicity rating (crop damage) ([22]; 63 g ai/ha)
60: CHEAL phytotoxicity rating ([5]; 63 g ai/ha) | CASOB phytotoxicity rating ([6]; 250 g ai/ha) | phytotoxicity rating CASOB ([15]; 250 g ai/ha) | phytotoxicity rating SETVI ([20]; 63 g ai/ha)
90: ABUTH phytotoxicity rating ([8]; 250 g ai/ha) | phytotoxicity rating DIGSA ([13]; 250 g ai/ha) | phytotoxicity rating ABUTH ([17]; 63 g ai/ha) | phytotoxicity rating SETVI ([20]; 250 g ai/ha)
35: ABUTH phytotoxicity rating ([8]; 63 g ai/ha)
95: IPOHE phytotoxicity rating ([11]; 250 g ai/ha)
80: phytotoxicity rating SORHA ([18]; 250 g ai/ha)

COc1c(Cl)cc(F)c(-n2c(=O)cc(C(F)(F)F)n(C)c2=O)c1NC(=O)C=Cc1cccc(Cl)c1 [2-134]
80: phytotoxicity rating ABUTH ([17]; 250 g ai/ha) | phytotoxicity rating SETVI ([20]; 250 g ai/ha) | RICE phytotoxicity rating (crop damage) ([21]; 250 g ai/ha)
50: RICE phytotoxicity rating (crop damage) ([21]; 63 g ai/ha)
0: phytotoxicity rating CORN (crop damage) ([2]; 63 g ai/ha) | phytotoxicity rating CORN (crop damage) ([2]; 250 g ai/ha) | DIGSA phytotoxicity rating ([4]; 63 g ai/ha) | phytotoxicity rating ECHCG ([16]; 63 g ai/ha) | phytotoxicity rating SORHA ([18]; 63 g ai/ha)
10: phytotoxicity rating RICE (crop damage) ([1]; 63 g ai/ha) | ECHCG phytotoxicity rating ([7]; 63 g ai/ha) | SORHA phytotoxicity rating ([10]; 63 g ai/ha) | phytotoxicity rating CASOB ([15]; 63 g ai/ha) | CORN phytotoxicity rating (crop damage) ([22]; 63 g ai/ha)
35: phytotoxicity rating SETVI ([20]; 63 g ai/ha)
60: SETVI phytotoxicity rating ([12]; 250 g ai/ha) | phytotoxicity rating ABUTH ([17]; 63 g ai/ha)
30: DIGSA phytotoxicity rating ([4]; 250 g ai/ha) | ECHCG phytotoxicity rating ([7]; 250 g ai/ha) | SORHA phytotoxicity rating ([10]; 250 g ai/ha) | phytotoxicity rating CASOB ([15]; 250 g ai/ha) | phytotoxicity rating ECHCG ([16]; 250 g ai/ha) | phytotoxicity rating SORHA ([18]; 250 g ai/ha) | phytotoxicity rating IPOHE ([19]; 250 g ai/ha)
20: phytotoxicity rating RICE (crop damage) ([1]; 250 g ai/ha) | SETVI phytotoxicity rating ([12]; 63 g ai/ha) | phytotoxicity rating DIGSA ([13]; 63 g ai/ha) | phytotoxicity rating IPOHE ([19]; 63 g ai/ha) | CORN phytotoxicity rating (crop damage) ([22]; 250 g ai/ha)
90: CASOB phytotoxicity rating ([6]; 63 g ai/ha) | phytotoxicity rating DIGSA ([13]; 250 g ai/ha)
100: phytotoxicity rating AMARE ([3]; 63 g ai/ha) | phytotoxicity rating AMARE ([3]; 250 g ai/ha) | CHEAL phytotoxicity rating ([5]; 63 g ai/ha) | CHEAL phytotoxicity rating ([5]; 250 g ai/ha) | CASOB phytotoxicity rating ([6]; 250 g ai/ha) | ABUTH phytotoxicity rating ([8]; 63 g ai/ha) | ABUTH phytotoxicity rating ([8]; 250 g ai/ha) | AMARE phytotoxicity rating ([9]; 63 g ai/ha) | AMARE phytotoxicity rating ([9]; 250 g ai/ha) | IPOHE phytotoxicity rating ([11]; 63 g ai/ha) | IPOHE phytotoxicity rating ([11]; 250 g ai/ha) | phytotoxicity rating CHEAL ([14]; 63 g ai/ha) | phytotoxicity rating CHEAL ([14]; 250 g ai/ha)
